Measurements taken from PubChem BioAssay (NCI).
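The concentration for 50% growth inhibition is given as GI50. TGI denotes the concentration required for complete inhibition of growth.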

Legend:
Experiment in all cases: NCI tumour cell line growth inhibition, 384-well format; in the data active = GI50 below about 0.43 µM; inactive = the rest
NCI-H460 NSCLC = tested on: NCI-H460 NSCLC
M14 melanoma = tested on: M14 melanoma
HCT-15 colon = tested on: HCT-15 colon
SK-MEL-5 melanoma = tested on: SK-MEL-5 melanoma
SW-620 colon = tested on: SW-620 colon
A549 NSCLC = tested on: A549 NSCLC
MCF7 breast = tested on: MCF7 breast
OVCAR-3 ovarian = tested on: OVCAR-3 ovarian
SR leukemia = tested on: SR leukemia
EKVX NSCLC = tested on: EKVX NSCLC
SF-539 CNS = tested on: SF-539 CNS
HS 578T breast = tested on: HS 578T breast
MOLT-4 leukemia = tested on: MOLT-4 leukemia
ACHN renal = tested on: ACHN renal
NCI/ADR-RES ovarian = tested on: NCI/ADR-RES ovarian
SK-OV-3 ovarian = tested on: SK-OV-3 ovarian
DU-145 prostate = tested on: DU-145 prostate
NCI-H322M lung = tested on: NCI-H322M lung
BT-549 breast = tested on: BT-549 breast
U251 glioblastoma = tested on: U251 glioblastoma
CAKI-1 renal = tested on: CAKI-1 renal
HT29 colon = tested on: HT29 colon
MDA-MB-435 melanoma = tested on: MDA-MB-435 melanoma
MDA-MB-231 breast = tested on: MDA-MB-231 breast
MALME-3M melanoma = tested on: MALME-3M melanoma
SF-268 CNS = tested on: SF-268 CNS
786-0 renal = tested on: 786-0 renal
MDA-MB-468 breast = tested on: MDA-MB-468 breast
OVCAR-8 ovarian = tested on: OVCAR-8 ovarian

C[C@H](Nc1ncnc2nc[nH]c12)c1cc2ccc(F)cc2nc1-c1ccccn1
inactive: GI50 (NCI-H460 NSCLC) > 100 µM | GI50 (M14 melanoma) > 100 µM | GI50 (HCT-15 colon) > 100 µM | GI50 (SK-MEL-5 melanoma) > 100 µM | GI50 (SW-620 colon) > 100 µM | GI50 (A549 NSCLC) > 100 µM | GI50 (MCF7 breast) 21 µM | GI50 (OVCAR-3 ovarian) 34.7 µM | GI50 (SR leukemia) 1.06 µM | GI50 (EKVX NSCLC) 37.6 µM | GI50 (SF-539 CNS) > 100 µM | GI50 (HS 578T breast) 24.7 µM | GI50 (MOLT-4 leukemia) 23.3 µM | GI50 (ACHN renal) 96.1 µM | GI50 (NCI/ADR-RES ovarian) > 100 µM | GI50 (SK-OV-3 ovarian) 64.3 µM | GI50 (DU-145 prostate) > 100 µM | GI50 (NCI-H322M lung) > 100 µM | GI50 (BT-549 breast) 21.1 µM | GI50 (U251 glioblastoma) > 100 µM | GI50 (CAKI-1 renal) 8.35 µM | GI50 (HT29 colon) > 100 µM | GI50 (MDA-MB-435 melanoma) > 100 µM | GI50 (MDA-MB-231 breast) 53 µM | GI50 (MALME-3M melanoma) 23.6 µM | GI50 (SF-268 CNS) > 100 µM | GI50 (786-0 renal) 30.4 µM | GI50 (MDA-MB-468 breast) 59.2 µM | GI50 (OVCAR-8 ovarian) > 100 µM
> 100 µM: TGI (NCI-H460 NSCLC) | TGI (M14 melanoma) | TGI (HCT-15 colon) | TGI (SK-MEL-5 melanoma) | TGI (SW-620 colon) | TGI (A549 NSCLC) | TGI (MCF7 breast) | TGI (OVCAR-3 ovarian) | TGI (EKVX NSCLC) | TGI (SF-539 CNS) | TGI (HS 578T breast) | TGI (MOLT-4 leukemia) | TGI (ACHN renal) | TGI (NCI/ADR-RES ovarian) | TGI (SK-OV-3 ovarian) | TGI (DU-145 prostate) | TGI (NCI-H322M lung) | TGI (BT-549 breast) | TGI (U251 glioblastoma) | TGI (HT29 colon) | TGI (MDA-MB-435 melanoma) | TGI (MDA-MB-231 breast) | TGI (MALME-3M melanoma) | TGI (SF-268 CNS) | TGI (786-0 renal) | TGI (MDA-MB-468 breast) | TGI (OVCAR-8 ovarian)
8.99 µM: TGI (SR leukemia)
54.1 µM: TGI (CAKI-1 renal)
